Results reported in patent US12098148B2, “Therapeutic compounds” (C4X Discovery Limited, priority 2018, dated 2024).

What was measured:
[1] = system: NQO1 mRNA in BEAS-2B cells; assay: Beas2B NQO1 mRNA cell based assay; design: species or system human; conditions: Homo sapiens, BEAS-2B, 24 h, 24 h compound treatment, increase in NQO1 mRNA vs vehicle (0.1% DMSO), read-out: EC50
Method: Beas2B NQO1 mRNA Cell Based Assay
The up regulation of the NRF2 mediated gene NAD(P)H:quinone acceptor oxidoreductase 1 (NQO1) was measured using the following assay method: BEAS-2B cells (ATCC CRL-9609) were plated in 96-well clear plates at 20,000 cells/well in 75 μL of cell culture media and incubated overnight (37° C., 5% CO2). On day 2, 25 μL of compound or controls were added to the cells for 24 h. On day 3, the medium was aspirated from the plate and the Cells-to-CT™ 1-Step TaqMan® Kit (Ambion A25603) was used to perform expression analysis directly from cultured cells without RNA purification according to the manufacturer's instructions.
Briefly, cells were washed with ice cold PBS and 22.5 μL of room-temperature DNase/Lysis solution was added to the cells and incubated at room temperature for 5 minutes. To stop the reaction, 2.25 μL of stop solution was added to the cell lysate. The samples were diluted 1:5 using nuclease free water and 2.5 μL transferred into the PCR plate. Real-time PCR was performed using the C-1000 Thermal Cycler (Bio-Rad) using human beta actin as the internal control. The cDNA was amplified with a specific primer for NQO1 using the 1-step RT-PCR master mix (Ambion Cells-to-CT™ 1-Step TaqMan® Kit A25603). The primers/probes sets that were used for amplification of cDNA were obtained from TaqMan Gene Expression Assays (Applied Biosystems). The comparative CT (ΔΔCT) relative quantification method was used to calculate the relative mRNA level of the target gene NQO1 as described in the Applied Biosystems Chemistry Guide.

[2] = molecular target: human KEAP1 (N-term, residues 321-609) (Homo sapiens, UniProt Q14145); assay: biochemical;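 further: fluorescence polarization competition assay of Kelch domain binding to NRF2, 12-point 1:3 dilution series from 10 µM, read after 1 h at room temperature, floor 10 nM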
Chain of human KEAP1 (N-term, residues 321-609) (Q14145 321-609): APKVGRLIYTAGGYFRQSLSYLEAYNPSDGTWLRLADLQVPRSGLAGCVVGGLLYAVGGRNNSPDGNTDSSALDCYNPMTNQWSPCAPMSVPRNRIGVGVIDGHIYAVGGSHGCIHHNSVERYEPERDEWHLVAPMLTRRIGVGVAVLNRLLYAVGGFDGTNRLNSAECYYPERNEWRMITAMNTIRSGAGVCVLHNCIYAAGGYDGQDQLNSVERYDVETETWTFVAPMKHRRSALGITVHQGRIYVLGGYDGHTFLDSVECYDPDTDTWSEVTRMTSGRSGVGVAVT

SMILES	IC50 [2] [nM]	EC50 [1] [nM]
C[C@@H]1CCN(C[C@@H]2c3c(OCc4nnn(C)c4C(F)F)ccc(Cl)c3CCN2C(=O)[C@@H]2CCC[C@]2(C)C(=O)O)C1=O [Example 113, (1S,2R)-2-((1S)-5-Chloro-8-((5-(difluoromethyl)-1-methyl-1H-1,2,3-triazol-4-yl)methoxy)-1-(((R)-3-methyl-2-oxopyrrolidin-1-yl)methyl)-1,2,3,4-tetrahydroisoquinoline-2-carbonyl)-1-methylcyclopentane-1-carboxylic acid]	10	240
[2H][C@@H]1C[C@@H](C(=O)N2CCc3c(Cl)ccc(OCc4nnn(C)c4C(F)F)c3[C@H]2CN2CC3(CC3)CC2=O)[C@@](C)(C(=O)O)C[C@@H]1[2H] [Example 210, (1S,2R,4S,5R)-2-((S)-5-chloro-8-((5-(difluoromethyl)-1-methyl-1H-1,2,3-triazol-4-yl)methoxy)-1-((6-oxo-5-azaspiro[2.4]heptan-5-yl)methyl)-1,2,3,4-tetrahydroisoquinoline-2-carbonyl)-1-methylcyclohexane-1-carboxylic-4,5-d2 acid]	5.9	0.24
Cn1nnc2cc(COc3cccc4c3[C@@H](CN3Cc5ccccc5C3=O)N(C(=O)[C@@H]3CCCC[C@@H]3C(=O)O)CC4)ccc21 [Example 18, (1S,2R)-2-((S)-8-((1-methyl-1H-benzo[d][1,2,3]triazol-5-yl)methoxy)-1-((1-oxoisoindolin-2-yl)methyl)-1,2,3,4-tetrahydroisoquinoline-2-carbonyl)cyclohexane-1-carboxylic acid]	10	73
Cn1nnc(COc2ccc(Cl)c3c2[C@@H](CN2CCCC2=O)N(C(=O)[C@H]2CCC[C@H]2C(=O)O)CC3)c1C(F)F [Example 87, (1R,2S)-2-((S)-5-Chloro-8-((5-(difluoromethyl)-1-methyl-1H-1,2,3-triazol-4-yl)methoxy)-1-((2-oxopyrrolidin-1-yl)methyl)-1,2,3,4-tetrahydroisoquinoline-2-carbonyl)cyclopentane-1-carboxylic acid]	150	300
Cc1nnc(COc2ccc(Cl)c3c2[C@@H](CN2CC4(CC4)CC2=O)N(C(=O)[C@@H]2CCCC[C@]2(C)C(=O)O)CC3)n1C1CC1 [Example 177, (1S,2R)-2-((S)-5-chloro-8-((4-cyclopropyl-5-methyl-4H-1,2,4-triazol-3-yl)methoxy)-1-((6-oxo-5-azaspiro[2.4]heptan-5-yl)methyl)-1,2,3,4-tetrahydroisoquinoline-2-carbonyl)-1-methylcyclohexane-1-carboxylic acid]	5.3	2.2
O=C(O)[C@H]1CCCC[C@H]1C(=O)N1CCc2c(Cl)ccc(OCc3cncnc3)c2[C@H]1CN1CCCC1=O [Example 85]	9.9	34

The next lines start with results.

IC50 [2] [nM]	SMILES	EC50 [1] [nM]
5.8	CC(=O)N1CC[C@H](Oc2ccc(Cl)c3c2[C@@H](CN2C(=O)c4ccccc4C2=O)N(C(=O)[C@@H]2CCCC[C@@H]2C(=O)O)CC3)C1 [Example 12, (1S,2R)-2-((S)-8-(((S)-1-Acetylpyrrolidin-3-yl)oxy)-5-chloro-1-((1,3-dioxoisoindolin-2-yl)methyl)-1,2,3,4-tetrahydroisoquinoline-2-carbonyl)cyclohexane-1-carboxylic acid]	8.6
5.6	CC(=O)N1CC[C@H](Oc2cccc3c2[C@@H](CN2C(=O)c4ccccc4C2=O)N(C(=O)[C@@H]2CCCC[C@@H]2C(=O)O)CC3)C1 [Example 3, (1S,2R)-2-((S)-8-(((S)-1-Acetylpyrrolidin-3-yl)oxy)-1-((1,3-dioxoiso-indolin-2-yl)methyl)-1,2,3,4-tetrahydroisoquinoline-2-carbonyl)cyclohexane-1-carboxylic acid]	120
9.7	CC(=O)N1CC[C@H](Oc2ccc(Br)c3c2[C@@H](CN2Cc4ccccc4C2=O)N(C(=O)[C@@H]2CCCC[C@@H]2C(=O)O)CC3)C1 [Example 19, (1S,2R)-2-((S)-8-(((S)-1-acetylpyrrolidin-3-yl)oxy)-5-bromo-1-((1-oxoisoindolin-2-yl)methyl)-1,2,3,4-tetrahydroisoquinoline-2-carbonyl)cyclohexane-1-carboxylic acid]	130
